Measured values from patent publication US10752588B2 (The Broad Institute, Inc., priority 2014, dated 2020).

Columns and labels:
human D2R/β-arrestin [1] = molecular target: T1, human D2R/β-arrestin (Homo sapiens (Human), UniProt P14416); test: β-Arrestin agonist assay (PathHunter); assay type: cell-based; details: CHO-K1 cell line expressing human D2R/β-arrestin
In short: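 After compound incubation, detection reagent (Buffer:Emerald II:Galactor-Star, 19:5:1) added and luminescence or fluorescence read.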

human D2R/β-arrestin [2] = molecular target: T1, human D2R/β-arrestin; test: Gi/cAMP agonist assay (Lance Ultra cAMP, Forskolin); assay type: cell-based; details: CHO-K1 cell line expressing human D2R/β-arrestin
In short: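 Cells were plated and incubated before compounds were pin-transferred and incubated for 10 min at 37 °C. Forskolin was then added to stimulate cAMP. cAMP was detected by Lance Ultra TR-FRET using Eu-cAMP tracer and ULight-anti-cAMP antibody.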

human D2R/β-arrestin [3] = molecular target: T1, human D2R/β-arrestin; test: cell-based; details: β-arrestin Antagonist, CHO-K1 cell line expressing human D2R/β-arrestin; quinpirole used as agonist
Description: (§1) The detection reagents are then added, and the read-out is detected.
(§2) Cells were prepared for assays by growing cultures for up to 2 weeks (from about 6-20 passages). A vial of frozen cells was thawed in a water bath held at 37° C. The cells were then transferred into a 50 ml tube with 10 ml growth media. The vial was rinsed with growth media and the contents transferred to the 50 ml tube. The 50 ml tube was centrifuged at 1200 rpm for 5 minutes at room temperature. […] When the cells reached about 90% confluence (approximately 3 days between passages), the cells were passaged and used for either the agonist or antagonist assays as described below.
The cells were prepared for β-arrestin assays as described above. The assays were performed using a PathHunter® β-Arrestin Detecting Kit (DiscoveRX). The cells were grown on 225 mm dishes, then washed once with 1×PBS (Cellgro), followed by digestion with 2.5 ml 1× Detachment reagent (DRX 92-0009) for approximately 2 minutes.

human D2R/β-arrestin [4] = molecular target: T1, human D2R/β-arrestin; test: cell-based; details: cAMP Antagonist, CHO-K1 cell line expressing human D2R/β-arrestin; quinpirole used as agonist
Description: as §1, §2
The cells were prepared for Gi/cAMP assays as described above. The assays were performed using a PE Lance Ultra cAMP kit (TRF0263). The cells were grown on 225 mm dishes, then washed once with 1×PBS (Cellgro) before digestion with 2.5 ml 1× Detachment reagent (DRX 92-0009) for about 2 minutes. PBS (20 ml) was then added to the plate, and the cells were transferred to a 50 ml centrifuge tube, and centrifuged at room temperature using BD Dynac III, at 1200 rpm for 5 minutes. […] The plates were then incubated at room temperature for about 30 minutes before addition of Eu-cAMP tracer solution (100, PerkinElmer) and then ULight-anti-cAMP solution (100) to each well.

T1 sequence (P14416 whole entry): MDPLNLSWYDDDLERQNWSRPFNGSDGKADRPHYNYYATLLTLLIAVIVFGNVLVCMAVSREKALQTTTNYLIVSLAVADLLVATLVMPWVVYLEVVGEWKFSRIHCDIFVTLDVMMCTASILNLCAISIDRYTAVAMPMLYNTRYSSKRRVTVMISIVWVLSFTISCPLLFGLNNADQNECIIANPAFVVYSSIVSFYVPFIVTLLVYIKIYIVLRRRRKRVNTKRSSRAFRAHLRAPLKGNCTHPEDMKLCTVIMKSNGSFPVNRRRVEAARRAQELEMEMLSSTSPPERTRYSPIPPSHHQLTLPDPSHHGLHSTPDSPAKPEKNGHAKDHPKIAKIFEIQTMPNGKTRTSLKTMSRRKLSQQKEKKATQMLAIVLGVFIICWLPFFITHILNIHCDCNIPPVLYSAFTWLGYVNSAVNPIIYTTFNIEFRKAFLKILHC

EC50 (human D2R/β-arrestin [1]) [nM]	EC50 (human D2R/β-arrestin [2]) [nM]	IC50 (human D2R/β-arrestin [3]) [nM]	IC50 (human D2R/β-arrestin [4]) [nM]	SMILES
> 30000	> 30000	< 100	< 100	O=C(NC(c1ccc(F)cc1)c1ccc(F)cc1)C1CCN(CCOc2ccccc2Cl)CC1 [Compound 83, N-(bis(4-fluorophenyl)methyl)-1-(2-(2-chlorophenoxy)ethyl)piperidine-4-carboxamide]
> 30000	> 30000	100 to 1000	100 to 1000	O=C(NC(c1ccccc1F)c1ccccc1F)C1CCN(CCOc2ccccc2Cl)CC1 [Compound 84, N-(bis(2-fluorophenyl)methyl)-1-(2-(2-chlorophenoxy)ethyl)piperidine-4-carboxamide]
> 30000	> 30000	< 100	< 100	O=C(NC(c1ccc(F)cc1)c1ccccc1F)C1CCN(CCOc2ccccc2Cl)CC1 (stereo not shown) [Compound 85, 1-(2-(2-chlorophenoxy)ethyl)-N-((2-fluorophenyl)(4-fluorophenyl)methyl)piperidine-4-carboxamide]
> 30000	> 30000	< 100	< 100	COc1cccc(C(NC(=O)C2CCN(CCOc3ccccc3Cl)CC2)c2ccccc2F)c1 (stereo not shown) [Compound 86, 1-(2-(2-chlorophenoxy)ethyl)-N-((2-fluorophenyl)(3-methoxyphenyl)methyl)piperidine-4-carboxamide]
> 30000	> 30000	100 to 1000	100 to 1000	Fc1ccccc1OCCN1CCC(CNC(c2ccc(Cl)cc2)c2ccccc2F)CC1 (stereo not shown) [Compound 87, 1-(4-chlorophenyl)-N-((1-(2-(2-fluorophenoxy)ethyl)piperidin-4-yl)methyl)-1-(2-fluorophenyl)methanamine]
> 30000	1000 to 10000	1000 to 10000	1000 to 10000	COc1cccc(C(NC(=O)C2CCN(CCOc3cc(F)ccc3F)CC2)c2ccccn2)c1 (stereo not shown) [Compound 90, 1-(2-(2,5-difluorophenoxy)ethyl)-N-((3-methoxyphenyl)(pyridin-2-yl)methyl) piperidine-4-carboxamide]
> 30000	100 to 1000	100 to 1000	100 to 1000	O=C(NC(c1ccc(Cl)cc1)c1ccncc1F)C1CCN(CCOc2ccccc2F)CC1 (stereo not shown) [Compound 91, N-((4-chlorophenyl)(3-fluoropyridin-4-yl)methyl)-1-(2-(2-fluorophenoxy)ethyl)piperidine-4-carboxamide]
100 to 1000	< 100	100 to 1000	> 30000	O=C(NC(c1ccc2c(c1)OC(F)(F)O2)c1ccccn1)C1CCN(CCOc2ccccc2F)CC1 (stereo not shown) [Compound 94, N-((2,2-difluorobenzo[d][1,3]dioxol-5-yl)(pyridin-2-yl)methyl)-1-(2-(2-fluorophenoxy)ethyl)piperidine-4-carboxamide]
> 30000	> 30000	1000 to 10000	100 to 1000	O=C(NC(c1ccc(Cl)cc1)c1ccccn1)C1CCN(CCCCOc2ccccc2)CC1 (stereo not shown) [Compound 110]
> 30000	100 to 1000	1000 to 10000	> 30000	O=C(NC(c1ccc(Cl)cc1)c1ccc(F)cn1)C1CCN(CCOc2ccccc2)CC1 (stereo not shown) [Compound 116, N-((4-chlorophenyl)(5-fluoropyridin-2-yl)methyl)-1-(2-phenoxyethyl)piperidine-4-carboxamide]
> 30000	100 to 1000	1000 to 10000	> 30000	O=C(NC(c1ccc(Cl)cc1)c1ccncc1F)C1CCN(CCOc2ccccc2)CC1 (stereo not shown) [Compound 117, N-((4-chlorophenyl)(3-fluoropyridin-4-yl)methyl)-1-(2-phenoxyethyl) piperidine-4-carboxamide]

The next lines start with the molecule.

SMILES	EC50 (human D2R/β-arrestin [1]) [nM]	EC50 (human D2R/β-arrestin [2]) [nM]	IC50 (human D2R/β-arrestin [3]) [nM]	IC50 (human D2R/β-arrestin [4]) [nM]
Fc1ccc(F)c(OCCN2CCC(CNC(c3ccc(Cl)cc3)c3ccccn3)CC2)c1 (stereo not shown) [Compound 89, 1-(4-chlorophenyl)-N-((1-(2-(2,5-difluorophenoxy)ethyl)piperidin-4-yl)methyl)-1-(pyridin-2-yl)methanamine]	> 30000	> 30000	100 to 1000	100 to 1000
CC(C1CCN(CCOc2ccccc2)CC1)N(C)C(c1ccc(Cl)cc1)c1ccccn1 (stereo not shown) [Compound 97, N-((4-chlorophenyl)(pyridin-2-yl)methyl)-N-methyl-1-(1-(2-phenoxyethyl)piperidin-4-yl)ethan-1-amine]	> 30000	> 30000	< 100	< 100
Clc1ccc(C(c2ccccn2)N2CC3CCN(CCOc4ccccc4)CC3C2)cc1 (stereo not shown) [Compound 98, 2-((4-chlorophenyl)(pyridin-2-yl)methyl)-5-(2-phenoxyethyl)octahydro-1H-pyrrolo[3,4-c]pyridine]	100 to 1000	< 100	> 30000	> 30000
CC1(CNC(c2ccc(F)cc2)c2ccccn2)CCN(CCOc2ccccc2C(F)(F)F)CC1 (stereo not shown) [Compound 101, 1-(4-fluorophenyl)-N-((4-methyl-1-(2-(2-(trifluoromethyl)phenoxy)ethyl)piperidin-4-yl)methyl)-1-(pyridin-2-yl)methanamine]	> 30000	> 30000	100 to 1000	< 100
c1ccc(OCCN2CCC(CNC(c3ccc4c(c3)OCO4)c3ccccn3)CC2)cc1 (stereo not shown) [Compound 102, 1-(benzo[d][1,3]dioxol-5-yl)-N-((1-(2-phenoxyethyl)piperidin-4-yl)methyl)-1-(pyridin-2-yl)methanamine]	> 30000	100 to 1000	100 to 1000	100 to 1000
FC(F)(F)c1ccccc1OCCN1CCC2(CC1)CCN(C(c1ccc(Cl)cc1)c1ccccn1)C2 (stereo not shown) [Compound 106, 2-((4-chlorophenyl)(pyridin-2-yl)methyl)-8-(2-(2-(trifluoromethyl)phenoxy)ethyl)-2,8-diazaspiro[4.5]decane]	> 30000	1000 to 10000	100 to 1000	1000 to 10000
CC(=O)N(CC1CCN(CCOc2ccccc2)CC1)C(c1ccc(Cl)cc1)c1ccccn1 (stereo not shown) [Compound 107, N-((4-chlorophenyl)(pyridin-2-yl)methyl)-N-((1-(2-phenoxyethyl)piperidin-4-yl)methyl) acetamide]	> 30000	100 to 1000	100 to 1000	> 30000
COc1ccccc1OCCN1CCC(C(=O)NCc2nccc3ccccc23)CC1 [Compound 108, N-(isoquinolin-1-ylmethyl)-1-(2-(2-methoxyphenoxy)ethyl)piperidine-4-carboxamide]	> 30000	< 100	1000 to 10000	> 30000
O=C(NC(c1ccccc1)c1ccccn1)C1CCN(CCOc2ccccc2)CC1 (stereo not shown) [Compound 113, 1-(2-phenoxyethyl)-N-(phenyl(pyridin-2-yl)methyl)piperidine-4-carboxamide]	> 30000	< 100	1000 to 10000	> 30000
O=C(NC(c1cccc(OC(F)(F)F)c1)c1ccccn1)C1CCN(CCOc2ccccc2)CC1 (stereo not shown) [Compound 118, 1-(2-phenoxyethyl)-N-(pyridin-2-yl(3-(trifluoromethoxy)phenyl)methyl) piperidine-4-carboxamide]	> 30000	< 100	1000 to 10000	> 30000
O=C(NC(c1ccc2c(c1)OC(F)(F)O2)c1ccccn1)C1CCN(CCOc2ccccc2)CC1 (stereo not shown) [Compound 119]	> 30000	< 100	100 to 1000	> 30000
